{"source": "patent US11939377B2", "about": "“Affinity matured CD22-specific monoclonal antibody and uses thereof” (The U.S.A., as represented by the Secretary, Department of …, priority 2018, dated 2024)", "key": {"[1]": {"target": "T1, PKC-βII (Homo sapiens, UniProt P05771)", "T1 construct": "Leukemia cell protein extracts were prepared by lysing cells with RIPA buffer; endogenous in cells; host or cells: Toledo, Kopn8, Nalm6", "T1 sequence (P05771 1-673 isoform P05771-2)": "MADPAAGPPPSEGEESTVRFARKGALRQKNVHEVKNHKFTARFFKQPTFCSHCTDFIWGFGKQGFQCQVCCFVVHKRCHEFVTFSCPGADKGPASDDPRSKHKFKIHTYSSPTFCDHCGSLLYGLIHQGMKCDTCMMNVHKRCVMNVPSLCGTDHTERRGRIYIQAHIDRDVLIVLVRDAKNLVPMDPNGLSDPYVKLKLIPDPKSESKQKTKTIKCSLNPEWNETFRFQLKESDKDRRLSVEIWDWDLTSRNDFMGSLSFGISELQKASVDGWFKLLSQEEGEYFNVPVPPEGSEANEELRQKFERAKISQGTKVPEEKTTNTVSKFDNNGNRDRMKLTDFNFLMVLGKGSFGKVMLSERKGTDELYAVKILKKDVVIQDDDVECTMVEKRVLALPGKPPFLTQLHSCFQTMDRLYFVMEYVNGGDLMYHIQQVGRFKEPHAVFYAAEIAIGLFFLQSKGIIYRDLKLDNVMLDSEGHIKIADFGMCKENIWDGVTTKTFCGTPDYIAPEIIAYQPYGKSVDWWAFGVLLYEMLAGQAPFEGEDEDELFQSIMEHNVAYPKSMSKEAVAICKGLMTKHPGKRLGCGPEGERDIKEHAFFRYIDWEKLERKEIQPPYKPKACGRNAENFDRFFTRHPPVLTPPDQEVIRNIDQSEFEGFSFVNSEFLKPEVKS", "experiment": "PKC-βII western blot of Bryostatin 1-treated cell lines", "assay_type": "cell-based", "settings": "24 hours exposure", "procedure": "(§1) FIGS. 10A-10E: (FIG. 10A) Three cell lines (Toldeo, Kopn8 and Nalm6) were co-incubated with Bryostatin 1 at varying concentrations for 24 hours. At 24 hours, cells were collected for protein kinase C (PKC)-βII isoform analysis by western blot. (FIG. 10B) KOPN8 or SEM cell lines were exposed to Bryostatin 1 for 16, 24, 48 or 72 hours. RNA was extracted from cells and analyzed using RNAseq. (FIG. 10C) Immunofluorescent staining of CD22 was conducted through permeabilization followed by staining of CD22. (FIG. 10D) Four cell lines were co-incubated with various combinations of Enzastaurin (10 μM), Staurosporine (100 μM), or Bryostatin 1 (1 nM) for 24 hours. CD22 expression was assessed using flow cytometry. MFI fold change=CD22 MFI^Bryostatin1/CD22 MFI^DMSO. (FIG. 10E) Cell lines were co-incubated with 1 nM Bryostatin 1 for 24 hours and measured for CD22 expression using CD22-PE antibody. MFI fold change=CD22 MFI^Bryostatin 1/CD22 MFI^DMSO.\nLeukemia cell protein extracts were prepared by lysing cells with RIPA buffer and heating at 98° C. for 5 minutes. The proteins were separated on an SDS-PAGE gel and transferred to a nitrocellulose membrane. The membranes were immunoblotted with antibodies PKC-βII and GAPDH (Abcam), overnight at 4° C. […]"}, "[2]": {"system": "CD22", "experiment": "Immunofluorescent staining of CD22 in permeabilized leukemia cells", "assay_type": "cell-based, human", "settings": "24 hours after exposure, 1 nM", "procedure": "as §1\nμ-dish 35 mm, high glass bottom dishes (Ibidi Inc, Madison, WI) were coated with poly-D-lysine for 2 hours and then seeded with 5×10^5 leukemia cells, which had been pre-treated with either 1 nM Bryostatin 1 or DMSO control for 24 hours. Approximately 12 hours after seeding, cells were fixed in 4% paraformaldehyde and then permeabilized with 0.2% Triton X-100 detergent. […]"}, "[3]": {"system": "CD22^lo or Nalm6 leukemia", "experiment": "CAR T cell persistence and phenotype by flow cytometry in leukemia-bearing mice", "assay_type": "in vivo, NSG mice", "procedure": "FIGS. 9A-9F: (FIGS. 9A-9B) A total of 1×10^5 tumor cells were co-cultured with 1×10^5 mock, CD22, or […] CAR and assessed for IFNγ and IL2 cytokines by ELISA from cell culture supernatants (statistics were calculated using paired t test (*, P<0.0332); FIG. 9A) or Annexin V staining was assessed over time using IncuCyte ZOOM (FIG. 9B). […] (FIG. 9C) NSG mice were injected with 1×10^6 GPF-positive CD22^neg, CD22^lo, or Nalm6 tumor cells on day 0. On day 3, 5×10^6 CD22 or CD22^V1 CAR were injected for treatment. Mice were imaged using IVIS technology and luciferin-D intraperitoneal injections. Luminescence quantification is shown on the right. […] (FIG. 9D) CD22 or CD22^V1 CART were co-incubated with tumor cells. On days 1 and 8, CAR was harvested, stained for flow cytometry, and analyzed on Fortessa flow machine. Statistics were calculated using unpaired t test (*, P<0.0332). (FIGS. 9E-9F) Mice were injected with CD22^lo or Nalm6 leukemia on day 0. […] Bone marrow cells were stained for flow cytometry and analyzed on Fortessa flow machine. Statistics were calculated using unpaired t test (****, P<0.0001; *, P<0.0332).\nFIGS. 13A-13F: (FIG. 13A) BIAcore analysis was used to evaluate association and dissociation curves of various scFvs. Note: The calculated dissociation rate constant kd (1.1×10^−6 l/s) is lower than the kd which can be measured by the BIAcore X-100 used here (1.0×10^−5 l/s). […] (FIG. 13B) CD22^V1 or CD22 CART were co-cultured with CD22^neg or CD22^lo leukemia and evaluated at 24 hours for PD1 expression through flow cytometry on a Fortessa flow machine. […] Bone marrow cells were stained for flow cytometry and analyzed on Fortessa flow machine. Statistics were calculated using unpaired t-test (** p<0.0021).\nCD22-CAR functionality and anti-leukemic efficacy were evaluated in vivo in Nalm6 xenograft or PDX models with NOD.Cg-Prkdcscid Il2rgtm1Wjl/SzJ (NSG) mice (The Jackson Laboratory and bred in-house) ages 6-10 weeks. […] On day 3, mice received CD22-CAR-transduced T cells or mock-transduced T cells intravenously at the indicated quantity. […]"}}}
{"smiles": "CCC/C=C/C=C/C(=O)O[C@H]1/C(=C/C(=O)OC)C[C@H]2C[C@H]([C@@H](C)O)OC(=O)C[C@H](O)C[C@@H]3C[C@H](OC(C)=O)C(C)(C)[C@](O)(C[C@@H]4C/C(=C/C(=O)OC)C[C@H](/C=C/C(C)(C)[C@]1(O)O2)O4)O3", "note": "[Bryostatin 1]", "values": [{"measurement": "PKCβII protein levels on ALL", "setting": "[1]", "value": "decreased"}, {"measurement": "vacuolated CD22 compared to DMSO controls", "setting": "[2]", "value": "less vacuolated CD22"}, {"measurement": "CD22 CART in bone marrow", "setting": "[3]; 30 days, drug 40 μg/kg once weekly for 2 weeks after CART", "value": "slightly increased"}, {"measurement": "central memory and effector memory cells within CD8+ CART population, spleen", "setting": "[3]; Nalm6 pretreated with drug, seven days after CD22 CAR injection", "value": "significant cumulative enrichment"}, {"measurement": "CART activation/exhaustion markers (PD1, TIM3, LAG3)", "setting": "[3]; with Bryostatin 1 exposure", "value": "stable PD1 expression, without increase in TIM3 or LAGS"}]}
